For assay [1], the target named is T1, BTK (Homo sapiens (Human), UniProt Q06187). In words: Ramos RA1 cell lysis and immunoassay, phospho-BTK (Y223) inhibition. It counts as cell-based. More on the design: key: X: BTK bound and autophosphoration of BTK inhibited in cells. Conditions: RAMOS cells, compound concentration 1 μM. The protocol:
Ramos RA 1 cells (ATCC) were cultured in RPMI-1640 media (Wisent) supplemented with 10% heat-inactivated FBS and 1% penicillin/streptomycin. Cells were seeded in 6-well plates at 1.71×10^6 cells/well and incubated at 37° C., 5% CO2 for 16 hours. Cells were treated with compound at the indicated concentrations or DMSO alone and incubated at 37° C., 5% CO2 for 24 hours. Cell suspensions were centrifugated at 1,400-1,600 RPM for 5 minutes at room temperature and supernatants were discarded. Cell pellets were resuspended with 1× RIPA buffer (Millipore) and incubated on ice for 15 minutes. Protein lysates were extracted by centrifugating at 20,000 RPM for 20 minutes at 4° C. Proteins were separated and total BTK protein levels were quantified by Simple Western Immunoassay (ProteinSimple) using the 12-230 kDa Jess Separation Module according to the manufacturer's protocol, using a protein concentration of 0.25 μg/μl and antibodies targeting BTK (clone #D3H5, Cell Signalling) and β-Actin (clone #AC-15, Santa Cruz) diluted to 1:400 and 1:10, respectively, where the latter was used as a loading control. An equal ratio of rabbit and mouse HRP-conjugated secondary antibodies was used for detection. BTK protein levels were quantified relative to S-Actin loading levels and subsequently normalized to the DMSO control. Phosphorylated BTK levels were quantified using the Protein Normalization Assay Module for Jess (ProteinSimple) according to the manufacturer's protocol, using a protein concentration of 1.5 μg/μl and an antibody targeting pBTK (Y223) (Cell Signalling) diluted to 1:50. Phosphorylated BTK levels were quantified relative to the Protein Normalization Reagent and subsequently normalized to the DMSO control.

The target in assay [2] is T1, BTK. In words: HTRF KinEASE-TK kinase assay, BTK. Type of assay: biochemical. Conditions: 3 h preincubation; for remaining activity at 1 µM: 1 μM compound, read-out: % BTK Remaining activity vs DMSO (1 μM, 3 h); for remaining activity at 10 µM: 10 μM compound, read-out: % BTK Remaining activity vs DMSO (10 μM, 3 h). The method, then:
Kinase activity was monitored using a HTRF® KinEASE-TK kit from Cisbio (62TK0PEC). For BTK, the 1× kinase buffer was supplemented with 10 mM MnCl2, 5 mM MgCl2, 1 uM ATPγS, 1 mM TCEP and 100 fold diluted Supplementary Enzyme Buffer. BTK was purchased from Promega. […] Reaction with substrate was then initiated by adding biotinylated substrate and ATP and the reaction was allowed to proceed for 45 min. […] After 60 min of incubation, the fluorescence emission was measured at 620 nm and 665 nm. The ratio of Em 665 nm to Em 620 nm was proportional to the amount of substrate phosphorylated by the kinase.

The target in assay [3] is EGFR (Homo sapiens (Human), UniProt P00533). In words: HTRF KinEASE-TK kinase assay, EGFR. The note with it: 3 h preincubation; for remaining activity at 1 µM: 1 μM compound, read-out: % EGFR Remaining activity vs DMSO (1 μM, 3 h); for remaining activity at 10 µM: 10 μM compound, read-out: % EGFR Remaining activity vs DMSO (10 μM, 3 h). Type of assay: biochemical. The protocol:
Kinase activity was monitored using a HTRF® KinEASE-TK kit from Cisbio (62TK0PEC). The buffer used was 1× kinase buffer supplemented with 2 mM MnCl2, 5 mM MgCl2, 1 mM TCEP and 100× diluted Supplementary Enzyme Buffer. EGFR was purchased from Promega. […] Reaction with substrate was then initiated by adding biotinylated substrate and ATP. […] After 60 min of incubation, the fluorescence emission was measured at 620 nm and 665 nm. The ratio of Em 665 nm to Em 620 nm was proportional to the amount of substrate phosphorylated by the kinase.
For initial screening, enzymes were pre incubated with compounds at 2 different concentrations (1 and 10 uM final) and 0.5% DMSO.
(In general: TR-FRET usually uses a lanthanide donor and a delayed reading to cut background.)

Assay [4] deals with BMX (Homo sapiens (Human), UniProt P51813). In words: HTRF KinEASE-TK kinase assay, BMX. It counts as biochemical. Conditions: for remaining activity at 1 µM: 1 uM compound; for remaining activity at 1 µM / remaining activity at 10 µM: 3 h preincubation; for remaining activity at 10 µM: 10 uM compound; for IC50: dose response. The method, then:
(§1) Kinase activity was monitored using a HTRF® KinEASE-TK kit from Cisbio (62TK0PEC). […] BMX was purchased from Promega. 0.333 ng/ul BMX (3.03 nM) was preincubated in the absence or presence of inhibitor at room temperature for 3 hours. The reaction with substrate was then initiated by adding biotinylated substrate and ATP. […] Reaction was terminated by adding 31.25 nM SA-XL665 and 100 fold diluted europium labelled antibody (Eu-Ab), diluted in 1× detection buffer that contained EDTA. After 60 min of incubation, the fluorescence emission was measured at 620 nm and 665 nm. The ratio of Em 665 nm to Em 620 nm was proportional to the amount of substrate phosphorylated by the kinase.

The target in assay [5] is JAK3 (Homo sapiens (Human), UniProt P52333). The assay can be described thus: HTRF KinEASE-TK kinase assay, JAK3. It counts as biochemical. The note with it: for remaining activity at 1 µM: read-out: % JAK3 Remaining activity vs DMSO (1 μM, 3 h); for remaining activity at 10 µM: read-out: % JAK3 Remaining activity vs DMSO (10 μM, 3 h). The method, then:
as §1, with “JAK-3” for “BMX”, “0.0133” for “0.333”, “JAK3 (0.21” for “BMX (3.03”, “Reaction” for “The reaction”, “The reaction” for “Reaction”

Assay [6] deals with FGFR4 (Homo sapiens (Human), UniProt P22455). In words: HTRF KinEASE-TK kinase assay, FGFR4. It counts as biochemical. Conditions: for remaining activity at 1 µM: read-out: % FGFR4 Remaining activity vs DMSO (1 μM, 3 h); for remaining activity at 10 µM: read-out: % FGFR4 Remaining activity vs DMSO (10 μM, 3 h). The protocol:
as §1, with “FGFR-4” for “BMX”, “FGFR4 (5.12” for “BMX (3.03”, “Reaction” for “The reaction”, “The reaction” for “Reaction”

Assay [7] deals with RIPK2 (Homo sapiens (Human), UniProt O43353). The assay can be described thus: In vitro RIPK2 inhibition. It counts as biochemical. The note with it: for remaining activity at 1 µM: read-out: % RIPK2 Remaining activity vs DMSO (1 μM, 3 h); for remaining activity at 10 µM: read-out: % RIPK2 Remaining activity vs DMSO (10 μM, 3 h).

The record followed here is patent US20240018153A1, “BENZENESULFONAMIDE DERIVATIVES AND USES THEREOF” (2692372 ONTARIO, INC., priority 2020, published 2024).

Sequence of RIPK2 (O43353 whole entry, species assumed): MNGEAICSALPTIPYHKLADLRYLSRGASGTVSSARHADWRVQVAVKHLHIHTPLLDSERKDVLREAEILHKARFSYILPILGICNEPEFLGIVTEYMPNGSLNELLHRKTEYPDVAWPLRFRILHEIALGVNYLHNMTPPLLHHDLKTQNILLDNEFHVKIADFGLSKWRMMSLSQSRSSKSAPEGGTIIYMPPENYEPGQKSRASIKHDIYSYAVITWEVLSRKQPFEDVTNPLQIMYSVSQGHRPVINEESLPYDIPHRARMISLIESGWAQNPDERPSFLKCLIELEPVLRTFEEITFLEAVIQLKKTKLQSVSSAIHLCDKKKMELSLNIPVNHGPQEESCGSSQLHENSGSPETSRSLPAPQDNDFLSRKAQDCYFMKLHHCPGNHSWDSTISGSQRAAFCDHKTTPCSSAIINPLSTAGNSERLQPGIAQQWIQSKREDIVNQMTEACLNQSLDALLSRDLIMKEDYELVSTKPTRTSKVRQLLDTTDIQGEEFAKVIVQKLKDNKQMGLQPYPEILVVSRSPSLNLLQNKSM
T1 sequence (Q06187 whole entry): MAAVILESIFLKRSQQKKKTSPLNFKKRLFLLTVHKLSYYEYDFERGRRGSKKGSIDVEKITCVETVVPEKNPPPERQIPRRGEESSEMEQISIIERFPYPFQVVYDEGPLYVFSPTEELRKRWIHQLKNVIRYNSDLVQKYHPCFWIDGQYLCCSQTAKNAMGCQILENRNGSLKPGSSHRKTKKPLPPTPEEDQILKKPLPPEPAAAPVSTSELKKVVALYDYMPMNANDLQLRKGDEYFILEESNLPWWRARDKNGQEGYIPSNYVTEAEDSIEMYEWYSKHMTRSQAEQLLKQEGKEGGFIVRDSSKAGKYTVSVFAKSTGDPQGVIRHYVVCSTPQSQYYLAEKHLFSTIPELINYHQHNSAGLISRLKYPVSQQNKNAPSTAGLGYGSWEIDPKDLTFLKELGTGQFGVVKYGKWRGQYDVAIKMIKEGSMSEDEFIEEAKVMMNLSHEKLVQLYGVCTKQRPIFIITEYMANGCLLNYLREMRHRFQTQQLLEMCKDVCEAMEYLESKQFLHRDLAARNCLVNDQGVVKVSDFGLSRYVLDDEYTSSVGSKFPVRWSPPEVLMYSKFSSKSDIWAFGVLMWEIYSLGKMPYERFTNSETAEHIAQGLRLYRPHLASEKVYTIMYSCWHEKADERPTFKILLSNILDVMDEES
Sequence of JAK3 (P52333 781-1124): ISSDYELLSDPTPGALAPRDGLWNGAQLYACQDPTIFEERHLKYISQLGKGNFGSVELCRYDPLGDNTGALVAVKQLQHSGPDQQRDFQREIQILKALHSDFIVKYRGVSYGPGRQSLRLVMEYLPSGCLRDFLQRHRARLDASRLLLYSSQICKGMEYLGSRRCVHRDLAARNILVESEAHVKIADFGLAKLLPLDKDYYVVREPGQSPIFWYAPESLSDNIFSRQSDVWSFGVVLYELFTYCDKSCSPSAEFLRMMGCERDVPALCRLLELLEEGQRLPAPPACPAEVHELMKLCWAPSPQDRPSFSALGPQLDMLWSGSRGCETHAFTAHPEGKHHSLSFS
Sequence of BMX (P51813 whole entry): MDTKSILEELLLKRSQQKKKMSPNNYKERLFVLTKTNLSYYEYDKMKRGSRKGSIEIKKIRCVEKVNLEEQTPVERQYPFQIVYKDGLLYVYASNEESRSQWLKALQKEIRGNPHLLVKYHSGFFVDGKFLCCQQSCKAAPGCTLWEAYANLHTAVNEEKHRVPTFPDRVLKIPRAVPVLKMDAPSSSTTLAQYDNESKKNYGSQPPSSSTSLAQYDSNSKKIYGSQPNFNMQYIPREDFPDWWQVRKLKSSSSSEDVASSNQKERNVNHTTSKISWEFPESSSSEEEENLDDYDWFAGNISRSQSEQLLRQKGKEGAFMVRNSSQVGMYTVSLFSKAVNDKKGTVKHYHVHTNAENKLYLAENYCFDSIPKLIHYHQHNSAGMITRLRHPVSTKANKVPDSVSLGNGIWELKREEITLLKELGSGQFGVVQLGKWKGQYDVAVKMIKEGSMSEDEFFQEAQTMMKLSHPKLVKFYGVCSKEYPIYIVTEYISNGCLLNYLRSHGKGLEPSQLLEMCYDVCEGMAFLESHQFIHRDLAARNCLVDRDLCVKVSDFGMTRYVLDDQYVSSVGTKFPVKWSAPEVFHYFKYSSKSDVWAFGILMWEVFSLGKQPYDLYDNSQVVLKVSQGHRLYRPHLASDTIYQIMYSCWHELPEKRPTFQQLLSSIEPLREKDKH
Sequence of EGFR (P00533 25-1210): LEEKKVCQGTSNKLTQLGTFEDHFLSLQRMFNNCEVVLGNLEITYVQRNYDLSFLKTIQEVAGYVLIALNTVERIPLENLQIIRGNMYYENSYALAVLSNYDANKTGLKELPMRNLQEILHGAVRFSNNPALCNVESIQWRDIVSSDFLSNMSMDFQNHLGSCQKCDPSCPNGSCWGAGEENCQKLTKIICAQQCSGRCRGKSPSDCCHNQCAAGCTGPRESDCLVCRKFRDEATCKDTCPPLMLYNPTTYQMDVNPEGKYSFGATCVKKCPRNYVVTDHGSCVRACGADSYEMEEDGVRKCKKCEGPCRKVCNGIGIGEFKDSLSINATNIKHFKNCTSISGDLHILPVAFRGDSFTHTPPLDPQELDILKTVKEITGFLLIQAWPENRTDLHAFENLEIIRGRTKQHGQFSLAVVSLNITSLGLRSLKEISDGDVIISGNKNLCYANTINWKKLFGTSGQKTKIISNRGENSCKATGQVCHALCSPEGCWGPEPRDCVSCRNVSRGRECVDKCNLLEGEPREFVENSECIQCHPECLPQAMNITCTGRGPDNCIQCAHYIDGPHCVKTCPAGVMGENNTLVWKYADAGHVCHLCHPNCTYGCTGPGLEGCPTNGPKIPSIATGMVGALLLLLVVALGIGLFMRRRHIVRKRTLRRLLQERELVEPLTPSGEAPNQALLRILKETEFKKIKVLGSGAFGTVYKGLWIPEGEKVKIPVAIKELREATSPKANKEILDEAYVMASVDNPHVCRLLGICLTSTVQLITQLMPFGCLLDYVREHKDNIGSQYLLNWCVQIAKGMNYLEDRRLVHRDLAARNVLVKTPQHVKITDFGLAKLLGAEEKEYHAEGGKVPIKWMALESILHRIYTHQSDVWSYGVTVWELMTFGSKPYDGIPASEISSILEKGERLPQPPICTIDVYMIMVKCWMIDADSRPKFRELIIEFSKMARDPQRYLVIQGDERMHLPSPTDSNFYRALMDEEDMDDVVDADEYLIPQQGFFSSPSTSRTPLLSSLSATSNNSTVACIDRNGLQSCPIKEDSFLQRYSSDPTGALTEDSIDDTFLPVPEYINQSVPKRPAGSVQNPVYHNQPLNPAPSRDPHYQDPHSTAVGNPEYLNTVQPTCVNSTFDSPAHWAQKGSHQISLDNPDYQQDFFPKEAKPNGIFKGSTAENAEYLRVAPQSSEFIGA
Sequence of FGFR4 (P22455 22-802): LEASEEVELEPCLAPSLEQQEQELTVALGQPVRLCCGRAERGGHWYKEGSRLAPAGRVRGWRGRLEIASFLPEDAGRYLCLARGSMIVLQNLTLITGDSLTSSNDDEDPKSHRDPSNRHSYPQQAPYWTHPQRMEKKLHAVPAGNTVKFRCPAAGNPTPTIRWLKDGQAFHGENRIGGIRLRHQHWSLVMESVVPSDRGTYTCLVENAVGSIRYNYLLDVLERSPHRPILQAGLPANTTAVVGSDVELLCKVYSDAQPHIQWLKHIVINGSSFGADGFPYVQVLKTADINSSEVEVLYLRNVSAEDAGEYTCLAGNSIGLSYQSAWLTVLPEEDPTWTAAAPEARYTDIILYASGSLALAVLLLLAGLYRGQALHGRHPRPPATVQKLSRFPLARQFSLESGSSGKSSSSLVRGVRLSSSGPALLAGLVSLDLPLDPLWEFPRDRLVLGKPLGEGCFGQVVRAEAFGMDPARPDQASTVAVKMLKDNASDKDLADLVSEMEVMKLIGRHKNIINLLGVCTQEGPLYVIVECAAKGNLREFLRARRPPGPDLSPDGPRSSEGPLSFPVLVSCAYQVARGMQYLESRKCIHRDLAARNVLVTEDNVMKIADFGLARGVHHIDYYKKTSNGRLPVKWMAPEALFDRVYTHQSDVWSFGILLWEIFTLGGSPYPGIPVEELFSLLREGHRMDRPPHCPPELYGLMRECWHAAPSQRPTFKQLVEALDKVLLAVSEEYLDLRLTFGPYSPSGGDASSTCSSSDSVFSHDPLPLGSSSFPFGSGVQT

The term remaining activity denotes what remains of the control signal, in per cent. Usually IC50 stands for the midpoint of a concentration-inhibition curve. For the compound `Nc1ncnc2c1c(-c1ccc(Oc3ccccc3)cc1)nn2CCNS(=O)(=O)c1c(F)c(F)c(F)c(F)c1OCF` [Compound I-25, N-(2-(4-amino-3-(4-phenoxyphenyl)-1H-pyrazolo[3,4-d]pyrimidin-1-yl)ethyl)-2,3,4,5-tetrafluoro-6-(fluoromethoxy)benzenesulfonamide], the “pBTK inhibition (RAMOS, 24 h)” value in assay [1] is “X”. The remaining activity at 1 µM in assay [2] is below 50%; in assay [3], above 90%; in assay [4] it was below 50%; in assay [5], above 90%; in assay [6] it was 50 to 90%. Moreover, the remaining activity at 10 µM in assay [2] was below 50%; in assay [3], above 90%; in assay [4], below 50%; in assay [5] it was 50 to 90%; in assay [6] it was below 50%. This compound also registered an IC50 in assay [4] below 1 µM.
`COc1c(F)c(F)c(F)c(F)c1S(=O)(=O)n1nc(-c2ccc(Oc3ccccc3)cc2)c2c(N)ncnc21` [Compound I-23, 3-(4-phenoxyphenyl)-1-((2,3,4,5-tetrafluoro-6-methoxyphenyl)sulfonyl)-1H-pyrazolo[3,4-d]pyrimidin-4-amine]: the “pBTK inhibition (RAMOS, 24 h)” value in assay [1] was “X”. Also, the remaining activity at 1 µM was below 50% in assay [2], below 50% in assay [4], above 90% in assay [5] and above 90% in assay [6]. In addition, the remaining activity at 10 µM in assay [2] is below 50%; in assay [4], below 50%; in assay [5], 50 to 90%; in assay [6], above 90%.
Regarding `Nc1ncnc2c1c(-c1ccc(Oc3ccccc3)cc1)nn2CCNS(=O)(=O)c1c(F)c(F)c(F)c(F)c1C(F)F` [Compound I-22, N-(2-(4-amino-3-(4-phenoxyphenyl)-1H-pyrazolo[3,4-d]pyrimidin-1-yl)ethyl)-2-(difluoromethyl)-3,4,5,6-tetrafluorobenzenesulfonamide], the “pBTK inhibition (RAMOS, 24 h)” value in assay [1] is on record as “X”. Further, the remaining activity at 1 µM in assay [2] was below 50%; in assay [3], above 90%; in assay [4] it was below 50%; in assay [5] it was above 90%; in assay [6] it was above 90%. Further, the remaining activity at 10 µM in assay [2] is below 50%; in assay [3] it was below 50%; in assay [4], below 50%; in assay [5] it was 50 to 90%; in assay [6] it was below 50%.
On to `CS(=O)(=O)c1c(F)c(F)c(F)c(F)c1C(=O)NCCNc1ncnc2[nH]ccc12` [Compound I-45, N-(2-((7H-pyrrolo[2,3-d]pyrimidin-4-yl)amino)ethyl)-2,3,4,5-tetrafluoro-6-(methylsulfonyl)benzamide], for which the remaining activity at 1 µM in assay [7] was below 50%; in assay [2], below 50%; in assay [3], above 90%; in assay [4], below 50%; in assay [5], below 50%; in assay [6] it was above 90%. In addition, the remaining activity at 10 µM in assay [7] was 50 to 90%; in assay [2] it was below 50%; in assay [3], below 50%; in assay [4], below 50%; in assay [5], below 50%; in assay [6], below 50%.
Turning to `CN(CCn1nc(-c2ccc(Oc3ccccc3)cc2)c2c(N)ncnc21)C(=O)c1c(F)c(F)c(F)c(F)c1S(C)(=O)=O` [Compound I-28, N-(2-(4-amino-3-(4-phenoxyphenyl)-1H-pyrazolo[3,4-d]pyrimidin-1-yl)ethyl)-2,3,4,5-tetrafluoro-N-methyl-6-(methylsulfonyl)benzamide], the remaining activity at 1 µM in assay [7] was 50 to 90%; in assay [2] it was below 50%; in assay [3], below 50%; in assay [4], below 50%; in assay [5], above 90%; in assay [6], below 50%. Also, the remaining activity at 10 µM in assay [7] was above 90%; in assay [2], below 50%; in assay [3] it was below 50%; in assay [4] it was below 50%; in assay [5] it was below 50%; in assay [6] it was below 50%. For the same compound, the IC50 in assay [4] and in assay [6] (dose response) was below 1 µM in each case.
Regarding `CN(C)S(=O)(=O)c1c(F)c(F)c(F)c(F)c1C(=O)N1CC(n2nc(-c3ccc(Oc4ccccc4)cc3)c3c(N)ncnc32)C1` [Compound I-29, 2-(3-(4-amino-3-(4-phenoxyphenyl)-1H-pyrazolo[3,4-d]pyrimidin-1-yl)azetidine-1-carbonyl)-3,4,5,6-tetrafluoro-N,N-dimethylbenzenesulfonamide], the remaining activity at 1 µM in assay [7] is 50 to 90%; in assay [2], below 50%; in assay [3], below 50%; in assay [4], below 50%; in assay [5], below 50%; in assay [6] it was 50 to 90%. The remaining activity at 10 µM in assay [7] was 50 to 90%; in assay [2], below 50%; in assay [3] it was below 50%; in assay [4], below 50%; in assay [5], below 50%; in assay [6], above 90%.
